Measured values taken from patent publication US7875607B2, “7,8-bicycloakyl-chroman derivatives” (Ampere Life Sciences, Inc., priority 2004, dated 2011).

How the values were obtained:
[1] = tested on: dopaminergic neuronal cell line; assay: High glutamate-induced oxidative stress assay (HGOS); format: cell-based; settings: Mus musculus; 30 mM glutamate, 16 hrs; read-out: EC50, protection against HGOS cell injury and cell death
From the text: Protection against redox stress can be further evaluated in cell culture using high glutamate induced oxidative stress (HGOS) in mouse dopaminergic cell lines. The cytotoxic effect of glutamate is not due to excitotoxicity, as this cell line is devoid of inotropic glutamate receptors. Rather, the glutamate-induced toxicity of dopaminergic cells is associated with an inhibition of cystine transport which subsequently leads to depletion of intracellular glutathione (GSH) levels (Murphy T. H., et al. Neuron 2, 1547-1558, 1989), activation of neuronal 12-lipoxygenase (Li, Y. et al., Neuron 19, 453-463, 1997), increased ROS production (Tan S. et al., J. Cell Biol. 141, 1423-1432, 1998) and elevated intracellular Ca^2+ (Li, Y. et al., see supra). Some molecules were measured for their ability to protect cells against glutamate-induced stress and the assay is detailed in Examples.
This procedure was used to induce high glutamate-induced oxidative stress (HGOS) in a dopaminergic neuronal cell line. Using this assay the potency and efficacy of test articles against HGOS neuronal cell injury and cell death was established in a high throughput manner.
The cells were seeded into 96-well plates at a density of 2000 per well and left to grow for 72 hours in a 33° C. incubator with 5% CO2 in air atmosphere. The passage number of the cells for each assay experiment were no later than p11 in order to minimize experimental variation.
All compounds were dissolved in DMEM-No Glu containing 1 mM glucose, 30 mM glutamate and 1×Pen/Strep. DMEM-No Glu with 1 mM glucose and 1×P/S was used as the negative control, DMEM-No Glucose with 1 mM glucose, […] was used as a positive control and 100 μM Glutathione was added to the positive control as a standard. All of the procedures for this involving the making and dilution of compounds were performed using aseptic conditions and with minimal light.
The plates were removed from the incubator and examined under the microscope for morphological appearance and density. Using an aseptic technique and an 8-channel aspirator the media was carefully removed from the cells and replaced with 200 μl of 1×HBSS. This was done as quickly as possible to prevent the cells drying out. The plates were then placed in the humidified 37° C. incubators of the Biomek 2000 Side Loader. Four plates were washed at a time so as to minimize the time that the cells were sitting in 1×HBSS prior to addition of the compound test solution.
The Beckman Biomek workstations were used to load the compounds and controls from the mother plates onto the cell plates that were prewashed with HBSS under sterile conditions. The plates were incubated in the upper HTS incubator at 37° C. in 5% CO2 for exactly 16 hrs. The following day, using the Beckman Biomek workstations, the plates were removed from the incubator. Using Cell Tracker Addition, the compounds were removed from the plates, washed once with […] of pre-warmed 1×HBSS and then 100 μL of 5 μM Cell Tracker Green was added to each well. The plates were incubated at 37° C. for 30 min to allow the dye to enter the cell and be cleaved by the esterases. After washing the cells twice with prewarmed 1×HBSS, the plates were read with the 485 excitation; 538 emission filter pair on a Fluoroskan.

[2] = tested on: ELAM (E-selectin) expression in endothelial cells; assay: Cell-ELAM assay; format: cell-based; settings: 10 μg/ml LPS and 100 pg/ml IL-1β, 6 hours
From the text: In vitro cell-based assays for inflammation are well known in the art, for example e-selectin (also named Endothelial Leukocyte Adhesion Molecule or ELAM) or C-reactive protein (CRP). The ELAM assay measures in vitro activity of the test compounds in reducing expression of ELAM in activated endothelial cells. Briefly, endothelial cells are […] by adding known activators such as lipopolysaccharides, TNF or IL-1, alone or in some combination. Activated cells produce ELAM, which can be measured using, for example, an E-selectin monoclonal antibody-based ELISA assay. Similarly the CRP assay measures in vitro activity of test compounds in reducing expression of CRP in Human Hep3B epithelial cells. The activated cells produce CRP, which can be measured with a CRP ELISA assay.
Endothelial-Leukocyte Adhesion Molecule (ELAM), also known as E-selectin, was expressed on the surface of endothelial cells. In this assay, lipopolysaccharide (LPS) and IL-1β were used to stimulate the expression of ELAM; test agents were tested for their abilities to reduce this expression, in accordance with studies showing that reduction of leukocyte adhesion to endothelial cell surface was associated with decreased cellular damage (e.g., Takada, M., Et al., Transplantation 64: 1520-25, 1997; Steinberg, J. B., et al., J. Heart Lung Trans. 13:306-313, 1994).
Endothelial cells may be selected from any of a number of sources and cultured according to methods known in the art; including, for example, coronary artery endothelial cells, human brain microvascular endothelial cells (HBMEC; Hess, D. C., et al., Neurosci. Lett. 213(1): 37-40, 1996), or lung endothelial cells. Cells were conveniently cultured in 96-well plates. Cells were stimulated by adding a solution to each well containing 10 μg/ml LPS and 100 pg/ml IL-1β for 6 hours in the presence of test agent (specific concentrations and time may be adjusted depending on the cell type) Treatment buffer was removed and replaced with pre-warmed Fixing Solution® (100 μl/well) for 25 minutes at room temperature. Cells were then washed 3×, then incubated with Blocking Buffer (PBS+2% FBS) for 25 minutes at room temperature. Blocking Buffer containing Monoclonal E-Selectin Antibody (1:750, Sigma Catalog # S-9555) was added to each well. Plates were sealed and stored at 4° overnight. Plates were washed 4× with 160 μL Blocking Buffer per well. Second Antibody-HRP diluted 1:5000 in Blocking Buffer was then added (100 μL/well), and plates were incubated at room temperature (protected from light) for two hours. Plates were then washed 4× with Blocking Buffer before addition of 100 μL of ABTS Substrate solution at room temperature (Zymed, Catalog # 00-2024). Wells were allowed to develop for 35 minutes, before measurement at 402 nm in a Fluoroskan® Reader with shake program for 10 seconds. Positive results were recorded as a decrease in ELAM concentration in tested wells, as compared to control wells.

[3] = biological target: T1, human recombinant 5-lipoxygenase (Homo sapiens, UniProt P09917); assay: 5-Lipoxygenase enzyme assay; format: biochemical; settings: 70 μM arachidonic acid, pH 7.4
T1 construct: purchased Cayman 60402
T1 sequence (P09917 1-674): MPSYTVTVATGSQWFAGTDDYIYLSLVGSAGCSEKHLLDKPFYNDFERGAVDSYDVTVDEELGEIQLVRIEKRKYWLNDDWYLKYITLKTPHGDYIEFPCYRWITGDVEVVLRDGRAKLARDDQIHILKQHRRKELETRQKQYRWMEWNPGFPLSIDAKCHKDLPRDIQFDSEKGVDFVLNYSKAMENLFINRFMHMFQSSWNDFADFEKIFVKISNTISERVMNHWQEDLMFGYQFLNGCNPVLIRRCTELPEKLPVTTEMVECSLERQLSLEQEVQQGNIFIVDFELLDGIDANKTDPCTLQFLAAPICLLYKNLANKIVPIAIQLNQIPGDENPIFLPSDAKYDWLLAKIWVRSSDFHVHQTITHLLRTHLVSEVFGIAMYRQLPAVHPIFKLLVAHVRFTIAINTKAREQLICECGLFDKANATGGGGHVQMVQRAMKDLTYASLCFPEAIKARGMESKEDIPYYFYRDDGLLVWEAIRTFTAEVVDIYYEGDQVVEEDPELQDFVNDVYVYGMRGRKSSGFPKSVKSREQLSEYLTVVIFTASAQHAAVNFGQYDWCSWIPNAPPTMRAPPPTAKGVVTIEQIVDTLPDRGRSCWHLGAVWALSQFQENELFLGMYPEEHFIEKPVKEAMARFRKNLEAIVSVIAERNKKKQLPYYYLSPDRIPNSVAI
Procedure: This procedure was used for measuring the enzymatic activity of human recombinant 5-lipoxygenase using a […] method based on the ferric oxidation of xylenol orange.
Human recombinant 5-lipoxygenase (Cayman Cat # 60402) was used in this assay. The test compound and/or vehicle was added to 0.5U 5-lipoxygenase in 50 mM Tris-HCl buffer, pH 7.4. The reaction was initiated by addition of 70 μM arachidonic acid in Tris-HCl buffer, pH 7.4, and terminated after a 10 minute incubation at room temperature by addition of FOX reagent (25 mM sulphuric acid, 100 μM xylenol orange, 100 μM iron (II) sulphate, methanol:water 9:1). The yellow color of acidified xylenol orange was converted to a blue color by the lipid hydroperoxide-mediated oxidation of Fe^2+ ions and the interaction of the resulting Fe^3+ ions with the dye. The complex was allowed to form during a 1 hour incubation at room temperature with shaking. Absorbance of the Fe^3+ complex was then measured at […] using a spectrophotometer.
Negative controls contained enzyme during the incubation step but substrate was not added until after the FOX reagent.
Compounds were screened at 5 concentrations in triplicate starting at 10 μM

[4] = tested on: LTB4 production in heparinized whole blood; assay: Inhibition of LTB4 production in blood; format: cell-based, rat or mouse; settings: 20 μM A23187, read-out: EC50, protection against LTB4
Procedure: The blood was collected in heparinized tubes or syringes to prevent clotting. Heparin was at 20 USP U/ml. About 3-5 ml of blood was collected per rat and about 0.5-0.75 ml per mouse. This assay required 200 μl/data point, therefore a 96 well plate requires 20 ml.
The Calcium ionophore A23187 was prepared as a 10 mM stock solution in DMSO and the test agent is prepared in DMSO so that <1 μl DMSO will be added to the well
200 μl blood per well were added in a round bottom 96 well clear plastic 96 well plate followed by the test agent. After 10 minutes incubation at 37° C., 5 μl of Calcium ionophore A23187 for a final concentration of 20 μM were added and mixed, and further incubated for 30 min. After 1000×g centrifugation to pellet blood cells, 20 μl plasma was carefully removed.
20 μl plasma were added to 80 μl methanol to precipitate protein and mixed. This was further incubated 10 min. at room temperature and centrifuged at 1000×g to pellet protein.
Following manufacturer's instructions, the commercially available EIA kit was used to subsequently measure the LTB4 production in the samples. The LTB4 levels produced in the vehicle control sample were then compared to those in which the test compound had been added. From this a percent inhibition of LTB4 production by each concentration of test compound was calculated and the IC50 for inhibition of LTB4 production for each test compound was determined.

[5] = tested on: LTB4 release from MPRO cell line; assay: LTB4-cell assay; format: cell-based; settings: Mus musculus; differentiated MPRO cells, 1 μM A23187, 1 hour; read-out: EC50, inhibition of LTB4
Procedure: This procedure was used for measuring the release of the leukotriene LTB4 from a neutrophil cell line using a competitive ELISA technique.
A mouse promyelocytic cell line (MPRO) was used in this assay. These cells are committed immature neutrophils that can be differentiated into mature neutrophils by treatment with 10 μM all-trans retinoic acid for 72 hours
Following 72 hours of differentiation, cells were stimulated with 1 μM of a calcium ionophore (A23187) in the presence or absence of test compound or vehicle for 1 hour at 37° C. After this time, supernatant was removed from the cells and the LTB4 levels were determined following manufacturer's instructions, using a Leukotriene B4 EIA kit from Cayman (Cat # 520111)
The negative controls were media samples from differentiated but unstimulated cells.
The compounds were screened at 5 concentrations in quadruplicate starting at 10 μM

Structure (SMILES) | EC50 [1] [nM] | EC50 [2] [µM] | IC50 [3] [µM] | EC50 [4] [µM] | EC50 [5] [µM]
CC1(C)CCc2c(Br)c(O)c3c(c2O1)C1CCC3C1 (stereo not shown) [5-Bromo-2,2-dimethyl-3,4,7,8,9,10-hexahydro-7,10-methano-2H-benzo[h]chromen-6-ol] | ≤ 1000 | ≤ 30 |  |  | 
CC1(CCCSc2nc3ccccc3s2)CCc2cc(O)c3c(c2O1)C1CCC3C1 (stereo not shown) [2-[3-(Benzothiazol-2-ylsulfanyl)-propyl]-2-methyl-3,4,7,8,9,10-hexahydro-7,10-methano-2H-benzo[h]chromen-6-ol] | ≤ 1000 | ≤ 30 |  |  | 
Cc1c(O)c2c(c3c1CCC(C)(CCCCl)O3)C1CCC2CC1 (stereo not shown) [2-(3-Chloro-propyl)-2,5-dimethyl-3,4,7,8,9,10-hexahydro-7,10-ethano-2H-benzo[h]chromen-6-ol] | ≤ 1000 |  | ≤ 5 | ≤ 10 | 
CC1(CCCl)CCc2cc(O)c3c(c2O1)C1CCC3C1 (stereo not shown) [2-(2-Chloro-ethyl)-2-methyl-3,4,7,8,9,10-hexahydro-7,10-methano-2H-benzo[h]chromen-6-ol] | ≤ 1000 | ≤ 30 |  |  | 
CC1(C)CCc2cc(O)c3c(c2O1)C1C=CC3C1 (stereo not shown) [2,2-Dimethyl-3,4,7,10-tetrahydro-7,10-methano-2H-benzo[h]chromen-6-ol] | ≤ 1000 |  | ≤ 5 | ≤ 10 | ≤ 5
CC1(CCCCl)CCc2cc(O)c3c(c2O1)C1CCC3CC1 (stereo not shown) [2-(3-Chloro-propyl)-2-methyl-3,4,7,8,9,10-hexahydro-7,10-ethano-2H-benzo[h]chromen-6-ol] | ≤ 1000 |  |  | ≤ 10 | ≤ 5
CC(C)=CCc1c(O)c2c(c3c1CCC(C)(C)O3)C1C=CC2CC1 (stereo not shown) [2,2-Dimethyl-5-(3-methyl-but-2-enyl)-3,4,7,10-tetrahydro-7,10-ethano-2H-benzo[h]chromen-6-ol] | ≤ 1000 | ≤ 30 | ≤ 5 |  | 
